In brackets after ≈: the same amount, converted by molar mass. Several values for one entry are separate records, joined by “and”; a condition that tells them apart may be missing. Equal values may be shown once. Read-outs that look alike come from different tables or passages of the source.
Tests used:
[1] = test system: Xanthomonas oryzae KB 88; assay: microbe, parasite or virus in culture; assay type: cell-based
[2] = test system: Bcteroides fragilis KB 169 (ATCC 23745); assay type: cell-based; details: Medium B
Text: (§1) For reference, the minimum growth inhibition concentrations (MIC) to various bacteria of above five drugs and Lankacidin C are shown in Table 3.

[3] = test system: Peptococcus variabilis KB 235 (ATCC 14955); assay type: cell-based; details: Medium B
Text: as §1

[4] = test system: piricularia oryzae KF 180; assay: microbe, parasite or virus in culture; assay type: cell-based
[5] = test system: Clostridium perfringens KB 129 (ATCC 3624); assay: microbe, parasite or virus in culture; assay type: cell-based
[6] = test system: Treponema hyodysenteriae; assay type: in vivo, pigs
[7] = test system: Treponema hyodysenteriae; assay type: in vivo, pigs; remark: listed apart in the source
[8] = test system: T. hyo; assay: Example 7: induced swine dysentery trial, drug in feed; assay type: in vivo, pigs; details: for No. Pig Days with General Appearance Score of: 1 / No. Pig Days with Hydration Score of: 1: 1 = Normal; for No. Pig Days with General Appearance Score of: 2: 2 = Depressed; for No. Pig Days with Hydration Score of: 2: 2 = mild; for No. Pig Days with General Appearance Score of: 3: 3 = Moribund; for No. Pig Days with Hydration Score of: 3: 3 = moderate; for No. Pig Days with General Appearance Score of: 4: 4 = Dead; for No. Pig Days with Hydration Score of: 4: 4 = severe
Method: The test is conducted using 40 crossbred pigs approximately 6 weeks of age, weighing 12.8 kg at receipt. Pigs are assigned to one of the treatments outlined in the Table below, stratified by body weight and sex, and randomly assigned to pens within a randomized block design. Sexes intermixed within pens and proportioned among treatment groups. Treatments groups are randomly assigned to pens within experimental blocks to alleviate location variables (see Table 9). Each treatment group consists of two replicate pens with five pigs per pen.
All pigs are adjusted to the test facility for four days prior to their challenge with 100 ml of T. hvodvsenteriae (T. hvo) broth culture. Respective treatment diets are provided 1 hr postchallenge and continued ad libitum for three weeks followed by a two week nonmedicated period. Clinical signs are noted and recorded for each pig each day postchallenge.
Pigs are challenged on day 5 and then provided respective treatment diets immediately postchallenge for a 21-day period followed by a 14-day nonmedication period.
Pigs are challenged on day 5 and then provided respective treatment diets immediately postchallenge for a 21-day period followed by a 14-day nonmedicated period.

[9] = Clostridium perfringens, ATCC3624
[10] = […], 0 normal, 1 diarrhea, 2 feces cruentae
[11] = Group III, 5 additional healthy pigs penned with the treated pigs
[12] = Group III, second line of 5 pigs (additional healthy pigs)
[13] = Treatment A, 20 g/ton hygromycin A, Total
[14] = Treatment A, 20 g/ton hygromycin A, per pen (1, 4)
[15] = Treatment B, 10 g/ton hygromycin A, Total
[16] = Treatment B, 10 g/ton hygromycin A, per pen (5, 8)
[17] = Treatment C, 50 g/ton hygromycin A, Total
[18] = Treatment C, 50 g/ton hygromycin A, per pen (2, 7)
[19] = Treatment C, 50 g/ton Carbadox, Total
[20] = Treatment C, 50 g/ton Carbadox, per pen (2, 7)

SMILES: C=C[C@]1(C)C[C@@H](OC(=O)CSCCN(CC)CC)[C@]2(C)[C@H](C)CC[C@]3(CCC(=O)[C@H]32)[C@@H](C)[C@@H]1O [Dynamutilin, tiamulin]
- MIC ([1]; Xanthomonas oryzae, KB88): < 3.12 µg/mL
- MIC ([2]; read-out: MIC): < 0.2 µg/mL
- MIC ([3]; read-out: MIC): 0.4 µg/mL (≈ 0.81 µM)
- MIC [4]: > 100 µg/mL
- MIC [5, 9]: 0.78 µg/mL (≈ 1.58 µM)

SMILES: CCC[C@@H]1C[C@@H](C(=O)N[C@@H]([C@H]2O[C@H](SC)[C@H](O)[C@@H](O)[C@H]2O)[C@@H](C)O)N(C)C1 [Lincomycin]
- MIC ([1]; Xanthomonas oryzae, KB88): > 100 µg/mL
- MIC ([2]; read-out: MIC): 0.4 µg/mL (≈ 0.984 µM)
- MIC ([3]; read-out: MIC): 0.78 µg/mL (≈ 1.92 µM)
- MIC [4]: > 100 µg/mL
- MIC [5, 9]: 0.4 µg/mL (≈ 0.984 µM)

SMILES: CC(=O)[C@H]1O[C@@H](Oc2ccc(/C=C(\C)C(=O)N[C@@H]3[C@H](O)[C@@H](O)[C@H]4OCO[C@H]4[C@@H]3O)cc2O)[C@@H](O)[C@@H]1O [Hygromycin A, hygromycin A]
- Pathogen Detection Rate (%) During medication days 31 to 120 ([6]; Group III, hygromycin A 0.5mg/liter drinking water, rectal swabs): 0/12
- Mortality ([6]; Group III: infected, hygromycin A 0.5mg/liter drinking water): 0
- Pathogen Detection Rate (%) Withdrawal days 31 to 120 ([6]; Group III, after end of medication, rectal swabs): 0/12
- Pathogen Detection Rate (%) Post infecting days 1 to 3 Before medication ([6]; Group III, rectal swabs): 10/12
- Pathogen Detection Rate (%) Prein-fecting ([6]; Group III, rectal swabs): 0%
- Average diarrhea index During medication [6, 10]: 0.22
- Average diarrhea index Pre-medication [6, 10]: 0
- Gross pathological examination of the colon ([6]; […], necropsy after the experiment): normal
- Change in morbidity (%) Third day ([6]; pig, in vivo): 0%
- Change in morbidity (%) Thirtieth day ([6]; pig, in vivo): 0%
- MIC ([1]; Medium E): 50 µg/mL (≈ 97.8 µM)
- Average diarrhea index During observation [7, 11]: 0
- Change in morbidity ( %) Commencement of observation [7, 11]: 0%
- Change in morbidity ( %) During observation [7, 11]: 0%
- Mortality (%) [7, 11]: 0%
- Mortality (%) ([7]; Group III, 5 infected treated pigs): 0%
- Pathogen Detection Rate (%) Commencement of observation [7, 12]: 0%
- Pathogen Detection Rate (%) During observation [7, 12]: 0%
- attack of the disease in infected pigs or healthy pigs ([7]; Group III, during the observation period): no attack of the disease is observed
- swine dysentery symptoms of infected pigs ([7]; Group III, during the therapeutic period and at the starting time of observation): no swine dysentery symptoms
- Average diarrhea index pre-medication [7, 10]: 0
- Average diarrhea index During medication ([7]; pig, in vivo): 0
- Average diarrhea index During observation ([7]; pig, in vivo): 0
- Change in morbidity ( %) Commencement of observation ([7]; pig, in vivo): 0%
- Change in morbidity ( %) During medication ([7]; pig, in vivo): 0/5
- Change in morbidity ( %) During observation ([7]; pig, in vivo): 0%
- Pathogen Detection Rate (%) Commencement of observation ([7]; pig, in vivo): 0%
- Pathogen Detection Rate (%) During medication ([7]; pig, in vivo): 0%
- Pathogen Detection Rate (%) During observation ([7]; pig, in vivo): 0%
- Pathogen Detection Rate (%) pre-infection ([7]; pig, in vivo): 0%
- MIC [2]: 50 µg/mL (≈ 97.8 µM)
- MIC [4]: >100 µg/mL
- MIC ([5]; Medium B): 6.25 µg/mL (≈ 12.2 µM)
- No. Pig Days with General Appearance Score of: 1 [8, 13]: 349 pig days
- No. Pig Days with General Appearance Score of: 2 [8, 13]: 1 pig days
- No. Pig Days with Hydration Score of: 2 [8, 13]: 0 pig days
- No. Pig Days with General Appearance Score of: 3 [8, 13]: 0 pig days
- No. Pig Days with Hydration Score of: 3 [8, 13]: 0 pig days
- No. Pig Days with General Appearance Score of: 4 [8, 13]: 0 pig days
- No. Pig Days with Hydration Score of: 4 [8, 13]: 0 pig days
- No. Pig Days with General Appearance Score of: 1 [8, 14]: 174 pig days and 175 pig days
- No. Pig Days with Hydration Score of: 2 [8, 14]: 0 pig days
- No. Pig Days with General Appearance Score of: 3 [8, 14]: 0 pig days
- No. Pig Days with Hydration Score of: 3 [8, 14]: 0 pig days
- No. Pig Days with General Appearance Score of: 4 [8, 14]: 0 pig days
- No. Pig Days with Hydration Score of: 4 [8, 14]: 0 pig days
- No. Pig Days with Hydration Score of: 1 ([8]; Treatment A, 20 g/ton, Total): 350 pig days
- No. Pig Days with Hydration Score of: 1 ([8]; Treatment A, 20 g/ton, per pen (1, 4)): 175 pig days
- No. Pig Days with General Appearance Score of: 1 [8, 15]: 349 pig days
- No. Pig Days with General Appearance Score of: 2 [8, 15]: 1 pig days
- No. Pig Days with Hydration Score of: 2 [8, 15]: 4 pig days
- No. Pig Days with General Appearance Score of: 3 [8, 15]: 0 pig days
- No. Pig Days with Hydration Score of: 3 [8, 15]: 0 pig days
- No. Pig Days with General Appearance Score of: 4 [8, 15]: 0 pig days
- No. Pig Days with Hydration Score of: 4 [8, 15]: 0 pig days
- No. Pig Days with General Appearance Score of: 1 [8, 16]: 175 pig days and 174 pig days
- No. Pig Days with Hydration Score of: 2 [8, 16]: 2 pig days
- No. Pig Days with General Appearance Score of: 3 [8, 16]: 0 pig days
- No. Pig Days with Hydration Score of: 3 [8, 16]: 0 pig days
- No. Pig Days with General Appearance Score of: 4 [8, 16]: 0 pig days
- No. Pig Days with Hydration Score of: 4 [8, 16]: 0 pig days
- No. Pig Days with Hydration Score of: 1 ([8]; Treatment B, 10 g/ton, Total): 346 pig days
- No. Pig Days with Hydration Score of: 1 ([8]; Treatment B, 10 g/ton, per pen (5, 8)): 173 pig days
- No. Pig Days with Hydration Score of: 2 [8, 17]: 3 pig days
- No. Pig Days with Hydration Score of: 3 [8, 17]: 0 pig days
- No. Pig Days with Hydration Score of: 4 [8, 17]: 0 pig days
- No. Pig Days with Hydration Score of: 2 [8, 18]: 2 pig days and 1 pig days
- No. Pig Days with Hydration Score of: 3 [8, 18]: 0 pig days
- No. Pig Days with Hydration Score of: 4 [8, 18]: 0 pig days
- No. Pig Days with Hydration Score of: 1 ([8]; Treatment C, printed 50 g/ton, Total): 347 pig days
- No. Pig Days with Hydration Score of: 1 ([8]; Treatment C, printed 50 g/ton, per pen (2, 7), row): 173 pig days and 174 pig days

SMILES: CC(=O)C(=O)N[C@@H]1/C=C(C)/C=C/[C@@H](O)C/C=C(C)/C=C/[C@@H](O)C[C@H]2OC(=O)[C@]1(C)C(=O)[C@@H]2C [Lankacidin C]
- MIC ([1]; Medium E): < 3.12 µg/mL
- MIC [2]: 0.78 µg/mL (≈ 1.7 µM)
- MIC [3]: 0.4 µg/mL (≈ 0.87 µM)
- MIC [4]: >100 µg/mL
- MIC ([5]; Medium B): 3.12 µg/mL (≈ 6.79 µM)

SMILES: COC(=O)N/N=C/c1c[n+]([O-])c2ccccc2[n+]1[O-] [Carbadox, carbadox, reference compound]
- No. Pig Days with General Appearance Score of: 1 [8, 19]: 349 pig days
- No. Pig Days with General Appearance Score of: 2 [8, 19]: 1 pig days
- No. Pig Days with General Appearance Score of: 3 [8, 19]: 0 pig days
- No. Pig Days with General Appearance Score of: 4 [8, 19]: 0 pig days
- No. Pig Days with General Appearance Score of: 1 [8, 20]: 174 pig days and 175 pig days
- No. Pig Days with General Appearance Score of: 3 [8, 20]: 0 pig days
- No. Pig Days with General Appearance Score of: 4 [8, 20]: 0 pig days
